Experimental data taken from ChEMBL document CHEMBL1201862, “PubChem BioAssay data set” (2004).
Calls of active or inactive are those of the source.

Columns and labels:
[1] = HEp-2 cell cytotoxicity, dose response, cytotoxicity control for RSV inhibitor project, HTS (AID 2410); type: functional; settings: human respiratory syncytial virus
[2] = inhibitors of firefly luciferase expression or activity, dose response, H4 neuroglioma cells, luminescence (AID 1990); type: functional, cell-based
[3] = Luminescence Cell-Based Dose Response HTS to Identify Inhibitors of 5'UTR Stem-Loop Driven Prion Protein mRNA Translation in H4 Neuroglioblastoma Cells. [Related pubchem assays: 1827 (Project Summary), 1813 (Primary HTS)]; type: functional
[4] = inhibitors of SNCA 5'UTR-driven reporter translation, confirmation, H4 neuroglioma cells, luminescence (AID 1988); type: functional, cell-based
[5] = Luminescence Cell-Based Dose Retest to Confirm Inhibitors of Cancer Stem Cells. [Related pubchem assays (depositor defined):AID2717, AID2721]; type: functional; settings: Homo sapiens
cells [6] = assay: cells
[7] = P. falciparum 3D7-ScDHODH growth inhibitors, dose response, SYBR Green, dry powder samples (AID 1159570); type: functional, cell-based;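 also: parasite growth measured after 72 hours of compound exposure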
[8] = HepG2 cell cytotoxicity, dose response, cytotoxicity control, plate reader, dry powder samples (AID 1159569); type: functional, cell-based;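 also: inhibitor potency with signal falling toward the positive control level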
[9] = P. falciparum Dd2 growth inhibitors, dose response, SYBR Green, dry powder samples (AID 1159566); type: functional, cell-based;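 also: potency for growth inhibition with lower SYBR green DNA signal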
[10] = P. falciparum ATP4 D1247Y mutant growth inhibitors, dose response, NITD609-resistant line, SYBR Green, dry powder (AID 1159571); type: functional, cell-based;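 also: parasites synchronized at ring stage by sorbitol before testing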
[11] = target: T1, Oxysterols receptor LXR-beta (Homo sapiens, UniProt P55055); type: functional, cell-based;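 also: agonist activity at LXR measured by a cell-based luminescence readout across a dose range, run as a counterscreen for daf-12 agonists; HEK293 cells with Gal4-LXR fusion and GAL4-driven luciferase reporter; potency for activation of Gal4-LXR reporter so compounds are agonists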
T1 sequence (P55055 whole entry): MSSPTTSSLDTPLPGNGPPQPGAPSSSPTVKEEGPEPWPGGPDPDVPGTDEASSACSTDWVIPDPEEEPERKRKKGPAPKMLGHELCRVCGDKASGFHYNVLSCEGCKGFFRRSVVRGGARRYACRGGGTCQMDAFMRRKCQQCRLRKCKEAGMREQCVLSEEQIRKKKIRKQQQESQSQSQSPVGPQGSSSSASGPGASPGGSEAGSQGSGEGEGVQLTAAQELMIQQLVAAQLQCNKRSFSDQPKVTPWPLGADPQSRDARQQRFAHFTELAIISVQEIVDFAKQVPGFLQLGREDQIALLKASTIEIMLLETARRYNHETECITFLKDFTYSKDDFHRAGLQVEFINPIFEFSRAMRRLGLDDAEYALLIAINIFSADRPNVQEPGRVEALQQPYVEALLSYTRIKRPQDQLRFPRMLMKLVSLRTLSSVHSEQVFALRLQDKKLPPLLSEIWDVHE

[12] = inhibitors of intracellular T. cruzi replication, confirmation, NIH3T3 host cells, beta-gal luminescence (AID 2044); type: functional, cell-based;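 also: intracellular parasites grown in NIH/3T3 mouse fibroblasts as host cells; luminescent beta-galactosidase reporter signal from transgenic T. cruzi replicating inside host cells; inhibitors lower the luminescence signal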
[13] = cytotoxicity toward NIH3T3 fibroblasts, dose response, counter-screen, cell-based, ATP luminescence, mouse fibroblasts (AID 2010); type: functional;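 also: cells exposed to compound for about 90 hours before reading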
Vero = assay: cells; type: functional; settings: Chlorocebus sabaeus
cells [14] = assay: cells; remark: listed apart in the source
[15] = target: T2, Calpain-2 catalytic subunit (Sus scrofa, UniProt P43367); assay: pig calpain II inhibitor potency, dose response, biochemical, fluorogenic peptide substrate (AID 1420); type: functional
T2 sequence (P43367 whole entry): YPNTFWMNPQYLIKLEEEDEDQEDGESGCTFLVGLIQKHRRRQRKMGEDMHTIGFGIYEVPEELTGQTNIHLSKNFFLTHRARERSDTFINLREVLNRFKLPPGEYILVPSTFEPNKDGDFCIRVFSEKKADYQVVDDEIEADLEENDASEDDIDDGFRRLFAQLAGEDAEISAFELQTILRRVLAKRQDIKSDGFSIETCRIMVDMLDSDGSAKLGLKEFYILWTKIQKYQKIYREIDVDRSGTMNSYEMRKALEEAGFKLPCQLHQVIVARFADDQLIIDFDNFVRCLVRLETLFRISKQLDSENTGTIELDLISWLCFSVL

[16] = P. falciparum Dd2 growth inhibitors, dose response, SYBR Green, cherry-picked samples (AID 1159567); type: functional, cell-based
[17] = target: T3, Short transient receptor potential channel 4 (Mus musculus, UniProt Q9QUQ5); assay: mouse TRPC4 channel activators, dose response, cell-based, HEK293 TRPC4/mu-opioid, Fluo-4 calcium (AID 434937); type: functional
T3 sequence (Q9QUQ5 whole entry): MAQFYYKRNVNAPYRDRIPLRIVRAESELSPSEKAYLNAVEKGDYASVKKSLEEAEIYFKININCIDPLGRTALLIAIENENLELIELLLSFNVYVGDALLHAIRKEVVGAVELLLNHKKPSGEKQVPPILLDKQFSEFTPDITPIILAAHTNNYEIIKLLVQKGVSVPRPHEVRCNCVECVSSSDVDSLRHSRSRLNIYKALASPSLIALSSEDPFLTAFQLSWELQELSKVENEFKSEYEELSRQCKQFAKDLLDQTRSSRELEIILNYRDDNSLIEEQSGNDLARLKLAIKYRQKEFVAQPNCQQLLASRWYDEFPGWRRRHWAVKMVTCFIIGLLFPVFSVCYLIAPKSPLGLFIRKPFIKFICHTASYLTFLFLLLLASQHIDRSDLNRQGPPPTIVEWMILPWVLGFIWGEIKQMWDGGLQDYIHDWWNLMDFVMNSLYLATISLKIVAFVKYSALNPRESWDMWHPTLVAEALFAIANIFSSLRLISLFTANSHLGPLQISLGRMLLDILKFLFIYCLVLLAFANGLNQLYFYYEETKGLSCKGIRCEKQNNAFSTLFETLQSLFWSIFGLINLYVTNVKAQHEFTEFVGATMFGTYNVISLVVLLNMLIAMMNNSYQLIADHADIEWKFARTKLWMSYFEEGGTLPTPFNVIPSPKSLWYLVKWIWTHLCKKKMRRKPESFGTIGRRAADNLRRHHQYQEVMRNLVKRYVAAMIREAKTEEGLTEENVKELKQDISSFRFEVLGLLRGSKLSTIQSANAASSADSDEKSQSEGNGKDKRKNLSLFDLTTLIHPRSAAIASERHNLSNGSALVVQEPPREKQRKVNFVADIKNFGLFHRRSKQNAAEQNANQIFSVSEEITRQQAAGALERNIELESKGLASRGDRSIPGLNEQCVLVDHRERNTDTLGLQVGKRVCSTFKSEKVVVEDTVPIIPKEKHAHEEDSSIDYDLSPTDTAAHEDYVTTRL

In the case of `O=C(Nc1ccncc1)c1cc(-c2cccc(Br)c2)nc2ccccc12`, the CC50 [1] is reported as 22.7 µM (active), the EC50 [2] is reported as > 120 µM (not active) and the EC50 [3] is reported as > 120 µM (not active). The EC50 [4] was > 120 µM (not active), the AC50 [5] was 5.05 µM (active) and the IC50 (cells [6]) was 17.4 µM (active).

For `COc1cccc(NC(=O)N(C)C[C@@H]2Oc3cc(C#Cc4ccccc4)ccc3S(=O)(=O)N([C@@H](C)CO)C[C@@H]2C)c1`, the AC50 [7] was 1.14 µM (active), the AC50 [8] was > 100 µM (inactive) and the AC50 [9] was 1.33 µM (active). For the same compound, the AC50 [10] was 1.35 µM (active).

In the case of `CCCCSc1ncnc2c1ncn2C1CCCCO1` (centres undefined), the EC50 [11] is reported as > 67.4 µM (inactive).

In the case of `CN(C)CCCN(C(=O)c1nc2ccccc2s1)c1nc2ccc(F)cc2s1`, the EC50 [12] is reported as < 0.1 µM (active), the EC50 [13] is reported as > 60 µM (not active) and the CC50 (Vero) is reported as > 25 µM (active). The EC50 (cells [14]) was < 0.004 µM (active).

With `Cc1ccccc1-n1nnnc1SCc1ncc(-c2ccccc2)o1` the IC50 [15] was 5.05 µM (not active).

For `C[C@H]1CN([C@@H](C)CO)C(=O)c2c(c3ccccc3n2C)-c2ccccc2CO[C@H]1CN(C)C(=O)Nc1ccc(-c2ccccc2)cc1`, the AC50 [7] was 2.71 µM (active), the AC50 [8] was > 100 µM (inactive) and the AC50 [16] was 2.08 µM (active). The AC50 [9] was 0.656 µM (active) and the AC50 [10] was 0.634 µM (active).

For `C#CCNC(=O)C[C@H]1C[C@@]2(C(=O)OC)C(=C[C@H](C(C)C)O[C@@H]2C2CC2)N(CCCCCCCC)C1=O`, the EC50 [11] was > 67.5 µM (inactive).

With `CC(C)Cc1ccc(CN2CCCC(NC(=O)CCn3cnnn3)C2)cc1` (centres undefined) the EC50 [12] was < 0.1 µM (active), the EC50 [13] was > 30 µM (not active) and the EC50 [17] was 4.22 µM (active). The EC50 (cells [14]) was 0.046 µM (active).

For `COc1ccccc1CN1C[C@@H]2N[C@H](C1)[C@@H]2c1ccc(-c2ccncc2)cc1`, the AC50 [7] was 3.59 µM (active), the AC50 [8] was 24.6 µM (active) and the AC50 [16] was 2.48 µM (active). For the same compound, the AC50 [9] was 2.02 µM (active) and the AC50 [10] was 3.07 µM (active).

For `O=C(CCCN1C(=O)c2cccc3cccc(c23)C1=O)N1CCN(c2ccccn2)CC1`, the IC50 [15] was 2.13 µM (not active).

For `COc1ccccc1NC(=O)/C=C\C(=O)O`, the IC50 [15] was 17.4 µM (not active).

With `CC(=O)Nc1ccc(S(=O)(=O)NCC2CCC(C(=O)NCCC3=CCCCC3)CC2)cc1` (centres undefined) the IC50 [15] was 9.12 µM (not active).
